Among the data in ChEMBL document CHEMBL3352358, “Discovery of 2-(cyclohexylmethylamino)pyrimidines as a new class of reversible valosine containing protein inhibitors” (J Med Chem, 2014) are IC50 values, retold here.

A short description of assay [1]: Inhibition of cell proliferation of human HCT116 cells after 72 hrs by thermostable firefly luciferase based assay. It counts as functional, HCT-116.
The target in assay [2] is Transitional endoplasmic reticulum ATPase (Homo sapiens, UniProt P55072). Put plainly: biochemical. It counts as cell-based.
Transitional endoplasmic reticulum ATPase, sequence (P55072 whole entry): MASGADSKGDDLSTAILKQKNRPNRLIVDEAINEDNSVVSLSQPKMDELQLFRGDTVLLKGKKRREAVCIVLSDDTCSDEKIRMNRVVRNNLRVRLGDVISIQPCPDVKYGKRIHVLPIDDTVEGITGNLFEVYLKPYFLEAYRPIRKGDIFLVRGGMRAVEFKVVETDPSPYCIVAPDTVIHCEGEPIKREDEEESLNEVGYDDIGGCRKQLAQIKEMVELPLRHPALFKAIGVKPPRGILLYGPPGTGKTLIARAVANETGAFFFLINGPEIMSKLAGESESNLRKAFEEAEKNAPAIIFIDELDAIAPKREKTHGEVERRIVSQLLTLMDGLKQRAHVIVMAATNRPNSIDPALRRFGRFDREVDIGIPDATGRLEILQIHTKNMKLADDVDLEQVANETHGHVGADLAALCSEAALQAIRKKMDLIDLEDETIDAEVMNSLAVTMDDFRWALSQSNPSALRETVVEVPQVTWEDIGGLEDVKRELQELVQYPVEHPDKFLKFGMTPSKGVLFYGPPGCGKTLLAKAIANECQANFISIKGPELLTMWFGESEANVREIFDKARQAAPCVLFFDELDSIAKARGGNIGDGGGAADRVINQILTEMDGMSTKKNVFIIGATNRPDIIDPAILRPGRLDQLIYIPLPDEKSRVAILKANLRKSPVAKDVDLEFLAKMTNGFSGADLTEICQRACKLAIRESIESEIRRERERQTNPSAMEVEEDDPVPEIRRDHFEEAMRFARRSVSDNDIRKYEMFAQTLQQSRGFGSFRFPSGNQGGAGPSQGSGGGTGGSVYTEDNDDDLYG
Description: Inhibition of human full length VCP (2 to 806 residues) expressed in High5 insect cells assessed as reduction in ATPase activity by measuring ADP formation by NADH coupled assay
Where [3] appears, read: Homo sapiens, HCT-116, 72 h, read-out: IC50.

Regarding `NNC(=O)[C@H]1CC[C@H](CNc2nc(NCc3ccccc3)cc(-c3ccccc3)n2)CC1`, the IC50 in assay [1] (setting [3]) was greater than 20000 nM; in assay [2], 986 nM. In the same order, the values of `Cc1cccc(-c2cc(NCc3ccccc3)nc(NC[C@H]3CC[C@H](C(N)=O)CC3)n2)c1` are 4160 nM and 183 nM. In the same order, the values of `NC(=O)[C@H]1CC[C@H](CNc2nc(NCc3ccccc3)cc(-c3ccc4[nH]ncc4c3)n2)CC1` are 5720 nM and 71 nM.

With `NC(=O)[C@H]1CC[C@H](CNc2nc(NCc3ccccc3)cc(-c3ccc(Cl)cc3)n2)CC1`, the half-maximal inhibitory concentration (IC50) in assay [1] (setting [3]) stood at 7320 nM; in assay [2] it was 106 nM. On the same counts, the results for `NC(=O)[C@H]1CC[C@H](CNc2nc(NCc3ccccc3)cc(-c3ccccc3F)n2)CC1` are greater than 10000 nM and 46 nM. On the same counts, the results for `NC(=O)[C@H]1CC[C@H](CNc2nc(NCc3ccccc3)cc(-c3cccc(O)c3)n2)CC1` are greater than 10000 nM and 106 nM. In the same order, the values of `NC(=O)[C@H]1CC[C@H](CNc2nc(NCc3ccccc3)cc(-c3cccc(C(F)(F)F)c3)n2)CC1` are 7970 nM and 237 nM.

On to `NC(=O)[C@H]1CC[C@H](CNc2nc(NCc3ccccc3)cc(-c3cccnc3)n2)CC1`, for which the results for the concentration for half-maximal inhibition (IC50) in assay [1] (setting [3]) and in assay [2] were greater than 10000 nM and 109 nM, respectively. In the same order, the values of `NC(=O)[C@H]1CC[C@H](CNc2nc(NCc3ccccc3)cc(-c3ccoc3)n2)CC1` are 8750 nM and 491 nM. On to `NC(=O)[C@H]1CC[C@H](CNc2nc(NCc3ccccc3)cc(-c3ccccc3)n2)CC1`, for which the 50% inhibitory concentration (IC50) in assay [1] (setting [3]) amounted to 9580 nM; in assay [2] it was 127 nM.

In the case of `NC(=O)[C@H]1CC[C@H](CNc2nc(NCc3ccccc3)cc(-c3ccc(C(F)(F)F)cc3)n2)CC1`, the IC50 in assay [1] (setting [3]) is 7610 nM; in assay [2], 222 nM. On the same counts, the results for `NC(=O)[C@H]1CC[C@H](CNc2nc(NCc3ccccc3)cc(-c3csc4ccccc34)n2)CC1` are 5820 nM and 74 nM. On the same counts, the results for `NC(=O)[C@H]1CC[C@H](CNc2nc(NCc3ccccc3)cc(-c3ccsc3)n2)CC1` are 7410 nM and 452 nM. For `CCOc1ccc(-c2cc(NCc3ccccc3)nc(NC[C@H]3CC[C@H](C(N)=O)CC3)n2)cc1`, the concentration for half-maximal inhibition (IC50) in assay [1] (setting [3]) was 2230 nM; in assay [2], 246 nM. With `O=C(NS(=O)(=O)C(F)(F)F)[C@H]1CC[C@H](CNc2nc(NCc3ccccc3)cc(-c3ccccc3)n2)CC1`, the IC50 in assay [1] (setting [3]) is greater than 20000 nM; in assay [2] it was 264 nM.

`O=C(O)[C@H]1CC[C@H](CNc2nc(-c3ccccc3)cc(-c3ccc(Cl)cc3)n2)CC1` showed a half-maximal inhibitory concentration (IC50) in assay [2] of 221 nM. Take `[N-]=[N+]=Nc1cccc(-c2cc(-c3ccccc3)nc(NC[C@H]3CC[C@H](C(=O)O)CC3)n2)c1`: the IC50 in assay [2] is 879 nM. Turning to `NC(=O)[C@H]1CC[C@H](CNc2nc(NCc3ccccc3)cc(-c3cc4ccccc4o3)n2)CC1`, the IC50 in assay [1] (setting [3]) came to 4640 nM; in assay [2], 61 nM. With `Cc1cc(-c2ccccc2)nc(SCc2ccccc2)n1`, the IC50 in assay [2] was greater than 37000 nM. Take `Cc1ccc(-c2cc(-c3ccccc3)nc(NC[C@H]3CC[C@H](C(=O)O)CC3)n2)cc1`: in assay [2], the IC50 came to 577 nM. Still for that read-out and setting: next, `COc1cccc(CNc2cc(-c3ccccc3)nc(NC[C@H]3CC[C@H](C(N)=O)CC3)n2)c1`: 5640 nM; `CS(=O)(=O)c1cccc(-c2cc(-c3ccccc3)nc(NC[C@H]3CC[C@H](C(=O)O)CC3)n2)c1`: 116 nM; `Cc1cccc(-c2cc(C)nc(NC[C@H]3CC[C@H](C(=O)O)CC3)n2)c1`: 11400 nM.

For the molecule `CC(=O)c1cccc(-c2cc(NCc3ccccc3)nc(NC[C@H]3CC[C@H](C(N)=O)CC3)n2)c1`, the values for the IC50 in assay [1] (setting [3]) and in assay [2] were 6550 nM and 87 nM, respectively. Turning to `NC(=O)[C@H]1CC[C@H](CNc2nc(NCc3ccc(S(N)(=O)=O)cc3)cc(-c3ccccc3)n2)CC1`, inhibition in assay [2] was half-maximal at 5170 nM (IC50). The same measure, in the same setting: next, `Cc1cccc(CNc2cc(-c3ccccc3)nc(NC[C@H]3CC[C@H](C(N)=O)CC3)n2)c1`: 1680 nM. Take `NC(=O)[C@H]1CC[C@H](CNc2nc(NCc3ccc(Cl)cc3)cc(-c3ccccc3)n2)CC1`: in assay [2], half-maximal inhibition (IC50) was put at 3470 nM. `NC(=O)[C@H]1CC[C@H](CNc2nc(NCc3ccccc3)cc(-c3cccc(CO)c3)n2)CC1`: the half-inhibitory concentration (IC50) in assay [1] (setting [3]) is greater than 10000 nM; in assay [2], 135 nM. `O=C(O)[C@H]1CC[C@H](CNc2nc(Nc3ccccc3)cc(-c3ccccc3)n2)CC1`: the half-inhibitory concentration (IC50) in assay [2] stood at 36 nM. On the same count and under the same terms, the value for `Nc1ccc(-c2cc(-c3ccccc3)nc(NC[C@H]3CC[C@H](C(=O)O)CC3)n2)cc1[N+](=O)[O-]` was 60 nM; that for `COc1ccccc1CNc1cc(-c2ccccc2)nc(NC[C@H]2CC[C@H](C(N)=O)CC2)n1` was 8860 nM.

For the molecule `Cc1cc(-c2ccccc2)nc(NCc2cccc(C(=O)O)c2)n1`, the IC50 in assay [2] was greater than 37000 nM.

`Cc1cc(-c2ccccc2)nc(Sc2ccc(C(=O)O)cc2)n1` gave a concentration for half-maximal inhibition (IC50) in assay [2] greater than 37000 nM. The same measure, in the same setting: the value for `O=C(O)[C@H]1CC[C@H](CNc2nc(-c3ccccc3)cc(-c3ccco3)n2)CC1` was 570 nM; that for `O=C(O)[C@H]1CC[C@H](CNc2nc(-c3ccccc3)cc(-c3ccccc3F)n2)CC1` was 141 nM; that for `O=C(O)[C@H]1CC[C@H](CNc2nccc(-c3ccccc3)n2)CC1` was 8700 nM. As to `CNC(=O)[C@H]1CC[C@H](CNc2nc(NCc3ccccc3)cc(-c3ccccc3)n2)CC1`, the IC50 in assay [1] (setting [3]) came to 9260 nM; in assay [2], 448 nM.

Take `COc1ccccc1-c1cc(C)nc(NC[C@H]2CC[C@H](C(=O)O)CC2)n1`: the concentration for half-maximal inhibition (IC50) in assay [2] is greater than 37000 nM. Still for that read-out and setting: the value for `O=C(O)[C@H]1CC[C@H](CNc2nc(NC3CCCCC3)cc(-c3ccccc3)n2)CC1` was 4310 nM. Consider `NC(=O)[C@H]1CC[C@H](CNc2nc(NCc3ccccc3F)cc(-c3ccccc3)n2)CC1`, for which the IC50 in assay [2] is 1690 nM. Consider `Cc1cc(-c2ccc(Cl)cc2)nc(NC[C@H]2CC[C@H](C(=O)O)CC2)n1`, for which half-maximal inhibition in assay [2] (IC50) required 2600 nM. On the same count and under the same terms, the value for `Cc1ccccc1CNc1cc(-c2ccccc2)nc(NC[C@H]2CC[C@H](C(N)=O)CC2)n1` was 9290 nM. In the case of `COC(=O)[C@H]1CC[C@H](CNc2nc(NCc3ccccc3)cc(-c3ccccc3)n2)CC1`, the IC50 result in assay [1] (hct-116) is reported as “Not Active”. Take `Nc1ccc(-c2cc(-c3ccccc3)nc(NC[C@H]3CC[C@H](C(=O)O)CC3)n2)cc1`: the IC50 in assay [2] was determined as 112 nM. Molecule `NC(=O)[C@H]1CC[C@H](CNc2nc(NCc3cccc([N+](=O)[O-])c3)cc(-c3ccccc3)n2)CC1` returned an IC50 in assay [2] of 4610 nM. In turn, `NC(=O)[C@H]1CC[C@H](CNc2nc(NCc3cccc(F)c3)cc(-c3ccccc3)n2)CC1` gave an IC50 in assay [2] of 474 nM. On the same count and under the same terms, next, `COc1ccc(-c2cc(-c3ccccc3)nc(NC[C@H]3CC[C@H](C(=O)O)CC3)n2)cc1`: 921 nM; `NC(=O)[C@H]1CC[C@H](CNc2nc(NCc3ccccc3Cl)cc(-c3ccccc3)n2)CC1`: 6940 nM; `Cc1cc(-c2ccccc2)nc(SCc2ccc(C(=O)NS(=O)(=O)C(F)(F)F)cc2)n1`: 21600 nM. `O=C(O)[C@H]1CC[C@H](CNc2nc(-c3ccccc3)cc(-c3cccnc3)n2)CC1` yielded an IC50 in assay [2] of 1200 nM. Same read-out and setting: the value for `Cc1cc(-c2ccccc2C)nc(NC[C@H]2CC[C@H](C(=O)O)CC2)n1` was greater than 37000 nM; that for `O=C(O)[C@H]1CC[C@H](CNc2nc(-c3ccccc3)cc(-c3ccc4[nH]ccc4c3)n2)CC1` was 150 nM.

As a reminder, the IC50 is the concentration at which inhibition is half-maximal.
